Source: BindingDB's records for patent US20240150287 (Hangzhou Apeloa Medicine Research Institute Co., 2024)
Several values for one entry are separate records, joined by “and”; a condition that tells them apart may be missing. Equal entries are not always repeated.

What follows are compounds tested against T1, Mucosal addressin cell adhesion molecule 1/Integrin alpha-4/beta-7 (Homo sapiens, UniProt P13612+P26010+Q13477) (assay: BINDING INHIBITION ACTIVITY EVALUATION TEST).
T1 sequence (P13612 whole entry): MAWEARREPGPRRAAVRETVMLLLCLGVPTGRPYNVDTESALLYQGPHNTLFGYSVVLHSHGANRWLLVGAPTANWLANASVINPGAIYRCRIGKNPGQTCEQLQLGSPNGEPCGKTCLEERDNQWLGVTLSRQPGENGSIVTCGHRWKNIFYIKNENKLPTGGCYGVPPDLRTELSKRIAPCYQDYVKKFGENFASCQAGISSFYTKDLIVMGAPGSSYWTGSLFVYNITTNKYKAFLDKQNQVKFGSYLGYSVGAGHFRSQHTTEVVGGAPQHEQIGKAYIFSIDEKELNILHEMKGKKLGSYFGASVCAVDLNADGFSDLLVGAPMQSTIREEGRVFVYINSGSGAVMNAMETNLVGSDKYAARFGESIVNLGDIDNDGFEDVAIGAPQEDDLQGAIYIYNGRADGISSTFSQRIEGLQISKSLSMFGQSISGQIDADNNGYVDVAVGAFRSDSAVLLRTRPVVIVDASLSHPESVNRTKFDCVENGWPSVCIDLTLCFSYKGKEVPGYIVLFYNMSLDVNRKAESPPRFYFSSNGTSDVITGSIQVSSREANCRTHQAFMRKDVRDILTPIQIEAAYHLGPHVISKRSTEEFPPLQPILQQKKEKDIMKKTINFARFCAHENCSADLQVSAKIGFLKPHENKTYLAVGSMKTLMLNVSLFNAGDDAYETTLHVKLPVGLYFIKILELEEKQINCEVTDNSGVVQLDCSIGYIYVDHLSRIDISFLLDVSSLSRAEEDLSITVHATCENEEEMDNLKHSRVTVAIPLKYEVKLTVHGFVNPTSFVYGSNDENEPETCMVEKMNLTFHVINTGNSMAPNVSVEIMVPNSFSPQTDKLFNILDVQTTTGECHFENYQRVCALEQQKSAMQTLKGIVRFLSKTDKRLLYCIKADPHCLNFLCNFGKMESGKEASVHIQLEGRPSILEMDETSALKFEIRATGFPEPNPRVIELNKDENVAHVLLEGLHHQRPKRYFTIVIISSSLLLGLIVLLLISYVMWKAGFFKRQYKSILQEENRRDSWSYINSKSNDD
T1 sequence (P26010 whole entry): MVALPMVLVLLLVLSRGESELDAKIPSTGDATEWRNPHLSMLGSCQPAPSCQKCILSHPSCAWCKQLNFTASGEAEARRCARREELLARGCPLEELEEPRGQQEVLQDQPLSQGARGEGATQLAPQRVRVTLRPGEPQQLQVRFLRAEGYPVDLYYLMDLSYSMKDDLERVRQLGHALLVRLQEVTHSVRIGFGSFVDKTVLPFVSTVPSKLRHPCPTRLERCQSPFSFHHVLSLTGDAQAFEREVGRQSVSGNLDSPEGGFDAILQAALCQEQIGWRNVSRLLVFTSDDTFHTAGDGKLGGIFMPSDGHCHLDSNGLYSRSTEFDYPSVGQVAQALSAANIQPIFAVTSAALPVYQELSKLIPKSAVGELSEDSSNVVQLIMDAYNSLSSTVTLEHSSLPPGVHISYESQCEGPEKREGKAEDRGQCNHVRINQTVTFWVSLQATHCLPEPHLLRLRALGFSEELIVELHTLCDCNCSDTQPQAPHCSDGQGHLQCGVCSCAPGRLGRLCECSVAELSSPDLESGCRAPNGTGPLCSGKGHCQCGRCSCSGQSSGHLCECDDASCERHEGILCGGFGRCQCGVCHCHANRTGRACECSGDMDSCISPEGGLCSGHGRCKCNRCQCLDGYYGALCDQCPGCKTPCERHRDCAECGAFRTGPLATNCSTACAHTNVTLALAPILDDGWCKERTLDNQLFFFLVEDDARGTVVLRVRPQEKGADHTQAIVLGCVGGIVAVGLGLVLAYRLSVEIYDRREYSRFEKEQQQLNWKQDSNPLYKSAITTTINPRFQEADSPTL
T1 sequence (Q13477 whole entry): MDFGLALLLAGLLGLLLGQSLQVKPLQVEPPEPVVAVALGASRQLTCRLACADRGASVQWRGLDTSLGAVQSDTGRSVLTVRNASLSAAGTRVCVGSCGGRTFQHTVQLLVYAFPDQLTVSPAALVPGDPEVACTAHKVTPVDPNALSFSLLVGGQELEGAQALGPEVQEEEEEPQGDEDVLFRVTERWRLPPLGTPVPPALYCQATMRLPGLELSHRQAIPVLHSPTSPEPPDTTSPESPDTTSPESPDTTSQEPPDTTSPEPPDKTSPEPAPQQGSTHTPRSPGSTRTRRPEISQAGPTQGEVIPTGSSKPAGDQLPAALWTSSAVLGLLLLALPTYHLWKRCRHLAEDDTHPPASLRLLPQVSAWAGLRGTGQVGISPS
Procedure: Coat the 96-well microplate (Costar) with 50 μL of recombinant human MAdCAM-1 (R&D Systems) solution per well, and incubate overnight (12-18 hours) at 4° C. Wash three times with 150 μL of TBS buffer per well. Block plate with 150 μL per well with blocking buffer for 1 h at 37° C. Wash three times with 150 μL of TBS buffer per well. Dilute the recombinant human integrin α4β7 (R&D Systems) with TBS buffer containing 0.1% bovine serum albumin (BSA), then add to the 96 well plate with 50 μL per well. Add 1 μL of test compound or DMSO, cover, incubate at room temperature for 2 h, wash three times with 150 μL of TBS buffer per well. Dilute the anti-β7 antibody (R&D Systems) with 0.1% BSA TBS buffer, then add to the 96 well plate with 50 μL per well, cover, incubate at room temperature for 1 h, wash three times with 150 μL of TBS buffer per well. Add 50 μL of streptavidin-HRP (R&D Systems) per well, incubate at room temperature for 20 min, wash three times with 150 μL of TBS buffer per well. Add 50 μL of TMB substrate solution (Sigma) per well, incubate at room temperature for 5-30 min, and add 25 μL of stop solution per well to stop the reaction. Finally, measure absorbance at 450 nm with microplate reader (SpectraMax 340PC. Molecular Devices). Repeat the test to find the binding rate […] at each concentration when the absorbance of the well without the test substance is used as 100%, and calculate the concentration IC50 that causes 50% binding inhibition.

SMILES | IC50
COC(=O)[C@H](Cc1ccc(N2C(=O)C3(CC3)c3cccc(Cl)c32)cc1)NC(=O)c1c(Cl)cc(N2CCC(N3CCOCC3)CC2)cc1Cl [US20240150287, Example 21] | 23.8 nM
COC(=O)[C@H](Cc1ccc(N2C(=O)C3(CC3)c3cc(F)ccc32)cc1)NC(c1ccccc1)(c1ccccc1)c1ccccc1 [US20240150287, Example 9] | 95.5 nM
COC(=O)[C@H](Cc1ccc(N2C(=O)C3(CC3)c3cc(N(C)C)ccc32)cc1)NC(c1ccccc1)(c1ccccc1)c1ccccc1 [US20240150287, Example 12] | 4.15 nM
COC(=O)[C@H](Cc1ccc(N2C(=O)C3(CC3)c3cccc(Cl)c32)cc1)NC(=O)c1c(Cl)cc(N2CC3CC2CO3)cc1Cl (stereo partly specified) [US20240150287, Example 20] | 4.15 nM
COC(=O)[C@H](Cc1ccc(-n2c(=O)n(C)c3cccc(Cl)c32)cc1)NC(c1ccccc1)(c1ccccc1)c1ccccc1 [US20240150287, Example 22] | 1.19 nM
COC(=O)[C@H](Cc1ccc(N2C(=O)C3(CC3)c3cccc(F)c32)cc1)NC(c1ccccc1)(c1ccccc1)c1ccccc1 [US20240150287, Example 5] | 6.21 nM
COC(=O)[C@H](Cc1ccc(N2C(=O)C3(CC3)c3ccccc32)cc1)NC(c1ccccc1)(c1ccccc1)c1ccccc1 [US20240150287, Example 6] | 5.81 nM
COC(=O)[C@H](Cc1ccc(N2C(=O)C3(CC3)c3cc(F)c(F)cc32)cc1)NC(c1ccccc1)(c1ccccc1)c1ccccc1 [US20240150287, Example 1] | 14.3 nM
COC(=O)[C@H](Cc1ccc(N2C(=O)C3(CC3)c3cccc(Cl)c32)cc1)NC(c1ccccc1)(c1ccccc1)c1ccccc1 [US20240150287, Example 2] | 2.57 nM
COC(=O)[C@H](Cc1ccc(N2C(=O)C3(CC3)c3cccc(Cl)c32)cc1)NC(=O)c1c(Cl)cc(N2CCOCC2)cc1Cl [US20240150287, Example 19] | 11.4 nM
COC(=O)[C@H](Cc1ccc(N2C(=O)C3(CC3)c3cc(F)c(N(C)C)cc32)cc1)NC(c1ccccc1)(c1ccccc1)c1ccccc1 [US20240150287, Example 11] | 3.05 nM
COC(=O)[C@H](Cc1ccc(N2C(=O)C3(CC3)c3ccc(F)cc32)cc1)NC(c1ccccc1)(c1ccccc1)c1ccccc1 [US20240150287, Example 4] | 2.54 nM and 8.02 nM
COC(=O)[C@H](Cc1ccc(-n2c(=O)n(C3CC3)c3cc(Cl)ccc32)cc1)NC(c1ccccc1)(c1ccccc1)c1ccccc1 [US20240150287, Example 23] | 143 nM
COC(=O)[C@H](Cc1ccc(N2C(=O)C3(CC3)c3cccnc32)cc1)NC(c1ccccc1)(c1ccccc1)c1ccccc1 [US20240150287, Example 16] | 0.75 nM
COC(=O)[C@H](Cc1ccc(N2C(=O)C(C)(C)c3cccc(Cl)c32)cc1)NC(c1ccccc1)(c1ccccc1)c1ccccc1 [US20240150287, Example 10] | 38.8 nM
COC(=O)[C@H](Cc1ccc(N2C(=O)C3(CC3)c3cccc(OC)c32)cc1)NC(c1ccccc1)(c1ccccc1)c1ccccc1 [US20240150287, Example 3] | 5.48 nM
COC(=O)[C@H](Cc1ccc(N2C(=O)C3(CC3)c3ccc(F)c(F)c32)cc1)NC(c1ccccc1)(c1ccccc1)c1ccccc1 [US20240150287, Example 15] | 5.62 nM
COC(=O)[C@H](Cc1ccc(N2C(=O)C3(CC3)c3cccc(Cl)c32)cc1)NC(=O)c1c(Cl)cc(Cl)cc1Cl [US20240150287, Example 17] | 64.2 nM

Further lines, results first:

IC50 | SMILES
3.65 nM | COC(=O)[C@H](Cc1ccc(-n2c(=O)n(C)c3cccc(Cl)c32)cc1)NC(=O)c1c(Cl)cc(N2CCOCC2)cc1Cl [US20240150287, Example 39]
1.83 nM | COC(=O)[C@H](Cc1ccc(-n2c(=O)n(C)c3cccc(F)c32)cc1)NC(c1ccccc1)(c1ccccc1)c1ccccc1 [US20240150287, Example 30]
0.45 nM | COC(=O)[C@H](Cc1ccc(-n2c(=O)n(C)c3cccc(OC)c32)cc1)NC(c1ccccc1)(c1ccccc1)c1ccccc1 [US20240150287, Example 35]
10.5 nM | COC(=O)[C@H](Cc1ccc(-n2c(=O)n(C)c3c(F)c(F)ccc32)cc1)NC(c1ccccc1)(c1ccccc1)c1ccccc1 [US20240150287, Example 34]
7.5 nM | COC(=O)[C@H](Cc1ccc(-n2c(=O)n(C3CC3)c3cccc(Cl)c32)cc1)NC(c1ccccc1)(c1ccccc1)c1ccccc1 [US20240150287, Example 25]
8.81 nM | COC(=O)[C@H](Cc1ccc(-n2c(=O)n(C3CC3)c3cccc(F)c32)cc1)NC(c1ccccc1)(c1ccccc1)c1ccccc1 [US20240150287, Example 27]
2.7 nM | COC(=O)[C@H](Cc1ccc(-n2c(=O)n(C)c3ccc(F)c(F)c32)cc1)NC(c1ccccc1)(c1ccccc1)c1ccccc1 [US20240150287, Example 33]
18.1 nM | COC(=O)[C@H](Cc1ccc(-n2c(=O)n(C3CCN(C)CC3)c3cccc(Cl)c32)cc1)NC(c1ccccc1)(c1ccccc1)c1ccccc1 [US20240150287, Example 29]
5.09 nM | COC(=O)[C@H](Cc1ccc(-n2c(=O)n(C)c3cc(N(C)C)ccc32)cc1)NC(c1ccccc1)(c1ccccc1)c1ccccc1 [US20240150287, Example 37]
160 nM | COC(=O)[C@H](Cc1ccc(-n2c(=S)n(C)c3cccc(Cl)c32)cc1)NC(c1ccccc1)(c1ccccc1)c1ccccc1 [US20240150287, Example 26]
5.67 nM | COC(=O)[C@H](Cc1ccc(-n2c(=O)n(C3CC3)c3ccc(Cl)cc32)cc1)NC(c1ccccc1)(c1ccccc1)c1ccccc1 [US20240150287, Example 24]
4.19 nM | COC(=O)[C@H](Cc1ccc(-n2c(=O)n(C)c3cc(Cl)c(Cl)cc32)cc1)NC(c1ccccc1)(c1ccccc1)c1ccccc1 [US20240150287, Example 32]
1.51 nM | COC(=O)[C@H](Cc1ccc(-n2c(=O)n(C)c3ccc(N(C)C)cc32)cc1)NC(c1ccccc1)(c1ccccc1)c1ccccc1 [US20240150287, Example 36]
